target: Muscarinic acetylcholine receptor M3 (Cavia porcellus, UniProt Q8VH26); assay: The compound was tested for antagonistic activity against Muscarinic acetylcholine receptor M3 in guinea pig trachea; assay type: functional; details: read-out: pA2 (converted)
Sequence (Q8VH26 whole entry): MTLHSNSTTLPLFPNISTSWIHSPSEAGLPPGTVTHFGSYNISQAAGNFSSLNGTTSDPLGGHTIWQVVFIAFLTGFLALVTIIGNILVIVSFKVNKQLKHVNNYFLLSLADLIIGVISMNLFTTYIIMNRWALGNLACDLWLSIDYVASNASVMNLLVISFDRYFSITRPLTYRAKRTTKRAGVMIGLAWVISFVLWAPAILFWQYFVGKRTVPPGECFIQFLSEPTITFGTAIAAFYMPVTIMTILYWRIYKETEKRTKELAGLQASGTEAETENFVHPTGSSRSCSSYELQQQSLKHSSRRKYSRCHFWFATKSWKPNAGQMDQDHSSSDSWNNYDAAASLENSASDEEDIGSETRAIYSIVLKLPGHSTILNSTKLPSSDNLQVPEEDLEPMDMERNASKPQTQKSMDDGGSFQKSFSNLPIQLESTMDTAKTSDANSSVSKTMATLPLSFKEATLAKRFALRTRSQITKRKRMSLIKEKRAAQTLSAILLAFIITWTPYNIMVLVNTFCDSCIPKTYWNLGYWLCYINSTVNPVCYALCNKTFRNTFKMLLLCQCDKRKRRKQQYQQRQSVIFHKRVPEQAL

Row | Structure (SMILES) | Kb
1 | CCN(CC)CCOc1ccccc1C(=O)Cc1ccccc1 | 214 nM
2 | O=C(Nc1ccccc1)OC1CCCCC1CN1CCOCC1 (stereo not drawn) | 2880 nM
3 | CCCOc1ccccc1C(=O)NC1CCCCC1CN1CCCCC1 (stereo not drawn) | 14800 nM
